Consider one compound from PMC7170383 (Pharmaceutical Biology, 2020).

Data set [1] addresses T1, CYP2C8 (Homo sapiens, UniProt P10632).
T1 construct: from tissue; host or cells: pooled human liver microsomes
T1 sequence (P10632 1-490): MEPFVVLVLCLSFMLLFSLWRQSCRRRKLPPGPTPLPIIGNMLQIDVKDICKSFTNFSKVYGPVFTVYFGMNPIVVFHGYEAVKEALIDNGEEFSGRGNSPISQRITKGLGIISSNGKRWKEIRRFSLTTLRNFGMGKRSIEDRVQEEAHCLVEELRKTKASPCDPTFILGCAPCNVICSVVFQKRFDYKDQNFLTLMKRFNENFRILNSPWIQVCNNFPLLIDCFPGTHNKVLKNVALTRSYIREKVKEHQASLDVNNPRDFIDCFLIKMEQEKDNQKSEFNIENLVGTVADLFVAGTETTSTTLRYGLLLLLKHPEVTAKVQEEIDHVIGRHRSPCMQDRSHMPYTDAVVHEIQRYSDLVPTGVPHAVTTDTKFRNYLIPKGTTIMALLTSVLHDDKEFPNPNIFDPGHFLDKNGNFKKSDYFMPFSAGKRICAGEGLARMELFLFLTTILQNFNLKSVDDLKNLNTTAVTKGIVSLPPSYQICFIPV
Description: CYP2C8 inhibition in pooled human liver microsomes (paclitaxel 6α-hydroxylation). It counts as in vitro ADME. As to conditions: CEP 100 μM, pooled HLMs. The procedure: (§1) Marker reactions of eight CYP isoforms were examined, and apparent Km values were estimated to characterize the pooled HLMs. All incubations were performed in triplicate, and the mean values were utilized. The typical incubation systems contained 100 mM potassium phosphate buffer (pH 7.4), NADPH generating system (1 mM NADP^+, 10 mM glucose-6-phosphate, 1 U/mL of glucose-6-phosphate dehydrogenase and 4 mM MgCl2), the appropriate concentration of HLMs, a corresponding probe substrate and hispidulin (or positive inhibitor for different probe reactions) in a final volume of 200 μL.
(§2) There was a 3-min preincubation period (at 37 °C) before the reaction was initiated by adding an NADPH-generating system. The reaction was terminated by adding a 100 μL acetonitrile (10% trichloroacetic acid for CYP2A6) internal standard mix, and the solution was placed on ice. The mixture was centrifuged at 12,000 rpm for 10 min, and an aliquot (50 μL) of supernatant was transferred for HPLC analysis. The instrument used in this study was Agilent 1260 series instrument with DAD and FLD detector, and the quantitative assay for the corresponding metabolites was performed as previously reported (Lang et al. [2016]; Zhang et al. [2017]). The quantitative analysis of metabolites can represent the activity of corresponding CYPs.

The target of data set [2] is T2, CYP3A4 (Homo sapiens, UniProt P08684).
T2 construct: CYP3A4 catalysed reactions (testosterone 6β-hydroxylation) in pooled HLM; from tissue; host or cells: pooled human liver microsomes
T2 sequence (P08684 whole entry): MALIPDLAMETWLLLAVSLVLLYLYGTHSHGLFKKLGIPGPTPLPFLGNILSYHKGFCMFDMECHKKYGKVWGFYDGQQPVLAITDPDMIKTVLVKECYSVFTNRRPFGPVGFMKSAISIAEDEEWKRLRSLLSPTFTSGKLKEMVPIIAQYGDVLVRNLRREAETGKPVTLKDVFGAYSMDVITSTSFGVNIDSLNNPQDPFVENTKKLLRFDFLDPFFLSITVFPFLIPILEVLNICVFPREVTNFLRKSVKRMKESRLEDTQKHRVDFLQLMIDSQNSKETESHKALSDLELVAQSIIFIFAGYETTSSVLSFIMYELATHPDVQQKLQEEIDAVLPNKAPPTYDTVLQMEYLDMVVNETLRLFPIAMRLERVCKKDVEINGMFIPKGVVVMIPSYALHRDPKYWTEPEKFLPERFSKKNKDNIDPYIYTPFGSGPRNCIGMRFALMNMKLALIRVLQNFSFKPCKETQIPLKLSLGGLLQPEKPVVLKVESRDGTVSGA
As to the kind of experiment: Time-dependent inhibition of CYP3A4 in human liver microsomes. The class given is in vitro ADME. The procedure: (§3) After incubation, an aliquot (20 μL) was transferred to another incubation tube (final volume 200 μL) containing an NADPH-generating system and probe substrates whose final concentrations were approximate to Km. Then, further incubations were performed to measure the residual activity. After being incubated for 0, 5, 10, 15, and 30 min, the reactions were terminated by adding a 100 μL acetonitrile internal standard mix and then placed on ice; the corresponding metabolites were determined by HPLC.
On the technique in general: Liver microsomes are vesicles of endoplasmic reticulum, rich in cytochrome P450 enzymes.

For data set [3], the target named is T3, CYP2C9 (Homo sapiens, UniProt P11712).
T3 construct: from tissue; host or cells: pooled human liver microsomes
T3 sequence (P11712 whole entry): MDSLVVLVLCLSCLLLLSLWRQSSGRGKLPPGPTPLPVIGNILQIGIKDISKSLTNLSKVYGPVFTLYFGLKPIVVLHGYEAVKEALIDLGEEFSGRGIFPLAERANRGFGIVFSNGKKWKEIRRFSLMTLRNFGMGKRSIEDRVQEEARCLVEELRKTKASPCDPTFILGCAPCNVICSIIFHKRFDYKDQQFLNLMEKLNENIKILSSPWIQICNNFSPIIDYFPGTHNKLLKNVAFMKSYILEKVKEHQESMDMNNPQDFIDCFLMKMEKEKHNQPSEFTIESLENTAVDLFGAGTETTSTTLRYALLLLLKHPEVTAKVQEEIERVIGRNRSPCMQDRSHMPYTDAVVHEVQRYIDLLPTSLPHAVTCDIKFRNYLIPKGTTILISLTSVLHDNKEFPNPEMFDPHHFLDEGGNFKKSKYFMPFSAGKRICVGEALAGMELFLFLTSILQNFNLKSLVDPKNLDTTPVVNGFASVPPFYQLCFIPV
As to the kind of experiment: Time-dependent inhibition of CYP2C9 in human liver microsomes. The conditions noted are these: CEP 20 μM, pre-incubation with HLM 30 min, incubation 0–30 min. The class given is in vitro ADME. The procedure: as §3

Data set [4] has as its target T4, CYP1A2 (Homo sapiens, UniProt P05177).
T4 construct: from tissue; host or cells: pooled human liver microsomes
T4 sequence (P05177 1-516): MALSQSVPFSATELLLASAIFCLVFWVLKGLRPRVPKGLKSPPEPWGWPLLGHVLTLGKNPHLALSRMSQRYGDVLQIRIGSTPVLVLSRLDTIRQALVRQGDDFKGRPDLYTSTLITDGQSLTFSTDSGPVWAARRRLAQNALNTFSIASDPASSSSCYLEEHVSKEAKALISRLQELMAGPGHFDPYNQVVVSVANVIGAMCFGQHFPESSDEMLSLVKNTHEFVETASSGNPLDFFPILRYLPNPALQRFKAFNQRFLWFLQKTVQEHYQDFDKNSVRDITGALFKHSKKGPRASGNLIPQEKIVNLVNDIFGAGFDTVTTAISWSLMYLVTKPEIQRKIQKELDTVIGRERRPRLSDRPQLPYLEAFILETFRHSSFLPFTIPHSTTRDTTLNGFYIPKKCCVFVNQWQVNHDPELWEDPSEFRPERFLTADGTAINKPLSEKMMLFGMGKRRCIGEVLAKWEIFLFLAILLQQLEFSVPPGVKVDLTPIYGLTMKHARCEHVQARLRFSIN
As to the kind of experiment: CYP1A2 inhibition in pooled human liver microsomes (phenacetin O-deethylation). It counts as in vitro ADME. As to conditions: CEP 100 μM, pooled HLMs. The procedure: as §1, §2

The target in data set [5] is T5, CYP2A6 (Homo sapiens, UniProt P11509).
T5 construct: from tissue; host or cells: pooled human liver microsomes
T5 sequence (P11509 1-494): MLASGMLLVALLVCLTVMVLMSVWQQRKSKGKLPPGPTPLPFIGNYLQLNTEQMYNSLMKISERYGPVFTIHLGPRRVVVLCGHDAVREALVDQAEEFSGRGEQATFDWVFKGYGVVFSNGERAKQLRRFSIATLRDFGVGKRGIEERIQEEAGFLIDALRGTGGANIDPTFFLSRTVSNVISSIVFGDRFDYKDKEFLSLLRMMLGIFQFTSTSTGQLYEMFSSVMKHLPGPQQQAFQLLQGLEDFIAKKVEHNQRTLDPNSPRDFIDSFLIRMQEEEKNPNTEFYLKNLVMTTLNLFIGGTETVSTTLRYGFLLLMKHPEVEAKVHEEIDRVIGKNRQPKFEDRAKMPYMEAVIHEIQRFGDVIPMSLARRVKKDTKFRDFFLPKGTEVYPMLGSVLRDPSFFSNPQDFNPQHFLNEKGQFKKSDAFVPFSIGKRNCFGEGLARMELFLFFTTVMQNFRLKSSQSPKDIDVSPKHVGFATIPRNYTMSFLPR
Description: CYP2A6 inhibition in pooled human liver microsomes (coumarin 7-hydroxylation). The class given is in vitro ADME. The conditions noted are these: CEP 100 μM, pooled HLMs. The procedure:
as §1, §2

Details of data set [6]: method as in Jiang et al. [2016]. The conditions noted are these: rats, orally administered CEP 10 mg/kg; ref Jiang et al. [2016]; cited from earlier work.
For data set [7], the target named is T6, CYP2D6 (Homo sapiens, UniProt P10635).
T6 construct: from tissue; host or cells: pooled human liver microsomes
T6 sequence (P10635 whole entry): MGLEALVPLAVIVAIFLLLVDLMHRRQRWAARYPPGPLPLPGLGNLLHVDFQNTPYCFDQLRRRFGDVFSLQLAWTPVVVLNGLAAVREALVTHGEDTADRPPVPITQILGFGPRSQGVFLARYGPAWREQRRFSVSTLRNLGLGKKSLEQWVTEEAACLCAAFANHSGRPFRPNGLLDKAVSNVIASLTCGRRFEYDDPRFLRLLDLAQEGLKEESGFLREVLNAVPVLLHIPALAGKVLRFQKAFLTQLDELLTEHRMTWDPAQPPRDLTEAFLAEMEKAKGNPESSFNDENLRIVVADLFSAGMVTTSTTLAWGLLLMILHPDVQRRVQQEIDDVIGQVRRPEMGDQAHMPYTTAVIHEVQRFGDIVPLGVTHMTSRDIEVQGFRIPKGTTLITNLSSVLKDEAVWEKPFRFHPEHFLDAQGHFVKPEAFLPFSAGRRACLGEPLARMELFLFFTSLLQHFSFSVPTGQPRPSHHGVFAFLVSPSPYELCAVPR
As to the kind of experiment: CYP2D6 inhibition in pooled human liver microsomes (dextromethorphan O-demethylation). It counts as in vitro ADME. As to conditions: CEP 100 μM, pooled HLMs. The procedure: as §1, §2

The target of data set [8] is T7, CYP2E1 (Homo sapiens, UniProt P05181).
T7 construct: CYP2E1 catalysed reactions (chlorzoxazone 6-hydroxylation) in pooled HLM; from tissue; host or cells: pooled human liver microsomes
T7 sequence (P05181 whole entry): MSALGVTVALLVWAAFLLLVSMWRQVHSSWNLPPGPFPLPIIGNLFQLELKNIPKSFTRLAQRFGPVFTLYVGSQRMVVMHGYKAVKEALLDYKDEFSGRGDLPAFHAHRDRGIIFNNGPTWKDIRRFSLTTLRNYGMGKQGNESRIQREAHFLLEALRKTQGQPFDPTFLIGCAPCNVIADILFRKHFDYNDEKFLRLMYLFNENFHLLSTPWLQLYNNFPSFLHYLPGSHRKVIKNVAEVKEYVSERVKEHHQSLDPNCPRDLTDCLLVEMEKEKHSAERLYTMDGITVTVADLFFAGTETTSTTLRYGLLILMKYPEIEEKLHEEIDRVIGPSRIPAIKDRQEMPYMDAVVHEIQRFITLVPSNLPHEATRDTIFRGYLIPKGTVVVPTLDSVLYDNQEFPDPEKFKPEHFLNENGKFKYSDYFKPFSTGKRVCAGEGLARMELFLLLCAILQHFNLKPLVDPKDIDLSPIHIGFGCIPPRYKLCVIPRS
As to the kind of experiment: CYP2E1 inhibition in pooled human liver microsomes (chlorzoxazone 6-hydroxylation). It counts as in vitro ADME. The procedure: as §1, §2
(§4) The enzyme kinetic parameters for the probe reaction were estimated from the best fit line, using least-squares linear regression of the inverse substrate concentration versus the inverse velocity (Lineweaver-Burk plots), and the mean values were used to calculate Vmax and Km. Inhibition data from the experiments that were conducted using multiple compound concentrations were represented by Dixon plots, and inhibition constant (Ki) values were calculated using non-linear regression according to the following equation: v=(VmaxS/Km(1+I/Ki)+S) where I is the concentration of the compound, Ki is the inhibition constant, S is the concentration of the substrate, and Km is the substrate concentration at half the maximum velocity (Vmax) of the reaction. The mechanism of the inhibition was inspected using the Lineweaver–Burk plots and the enzyme inhibition models. The data comparison was performed using Student’s t-test and performed using IBM SPSS statistics version 20 (IBM SPSS Inc., Armonk, NY).

The target in data set [9] is T8, CYP2C19 (Homo sapiens, UniProt P33261).
T8 construct: from tissue; host or cells: pooled human liver microsomes
T8 sequence (P33261 whole entry): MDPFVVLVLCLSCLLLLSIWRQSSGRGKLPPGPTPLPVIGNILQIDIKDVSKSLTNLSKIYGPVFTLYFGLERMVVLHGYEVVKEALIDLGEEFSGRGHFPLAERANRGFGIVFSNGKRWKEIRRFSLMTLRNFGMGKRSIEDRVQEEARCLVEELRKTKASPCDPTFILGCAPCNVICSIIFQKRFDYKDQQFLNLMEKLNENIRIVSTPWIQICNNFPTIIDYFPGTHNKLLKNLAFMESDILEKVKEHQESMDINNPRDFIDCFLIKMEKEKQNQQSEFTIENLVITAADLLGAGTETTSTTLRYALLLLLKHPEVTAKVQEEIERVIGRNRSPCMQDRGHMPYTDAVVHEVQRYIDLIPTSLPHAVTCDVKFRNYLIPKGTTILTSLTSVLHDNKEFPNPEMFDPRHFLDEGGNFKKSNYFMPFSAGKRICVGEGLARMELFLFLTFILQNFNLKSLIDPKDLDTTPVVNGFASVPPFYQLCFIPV
As to the kind of experiment: CYP2C19 inhibition in pooled human liver microsomes (S-mephenytoin 4-hydroxylation). It counts as in vitro ADME. As to conditions: CEP 100 μM, pooled HLMs. The procedure: as §1, §2

For data set [10], the target named is T7, CYP2E1. Description: Time-dependent inhibition of CYP2E1 in human liver microsomes. The class given is in vitro ADME. As to conditions: CEP 20 μM, pre-incubation with HLM 30 min, incubation 0–30 min. The procedure:
as §3

For data set [11], the target named is T2, CYP3A4. Description: CYP3A4 inhibition in pooled human liver microsomes (testosterone 6β-hydroxylation). The class given is in vitro ADME. The procedure: All incubations were performed in triplicate, and the mean values were utilized.
The reaction was terminated by adding a 100 μL acetonitrile (10% trichloroacetic acid for CYP2A6) internal standard mix, and the solution was placed on ice. The mixture was centrifuged at 12,000 rpm for 10 min, and an aliquot (50 μL) of supernatant was transferred for HPLC analysis.
The enzyme kinetic parameters for the probe reaction were estimated from the best fit line, using least-squares linear regression of the inverse substrate concentration versus the inverse velocity (Lineweaver-Burk plots), and the mean values were used to calculate Vmax and Km. […] The mechanism of the inhibition was inspected using the Lineweaver–Burk plots and the enzyme inhibition models.

Data set [12] concerns the target T3, CYP2C9. Description: CYP2C9 inhibition in pooled human liver microsomes (diclofenac 4′-hydroxylation). It counts as in vitro ADME. The procedure: as §1, §2, §4

As usually defined, the Ki is a measure of affinity in units of concentration, obtained from inhibition or displacement. High values mean lower affinity, low ones higher affinity. A word on the IC50: it is the concentration at which inhibition is half-maximal. Read a low IC50 as greater potency. Turning to `COc1ccc2cc1Oc1ccc(cc1)C[C@H]1c3c(cc4c(c3Oc3cc5c(cc3OC)CCN(C)[C@@H]5C2)OCO4)CCN1C` [CEP, Cepharanthine], in data set [1], the “Effect on CYP2C8 activity” value is recorded as “not affected”. For the same compound, in [2] (CEP 20 μM, pre-incubation with HLM 30 min, incubation 0–30 min), the “Time-dependent change of CYP3A4 activity” value was “decreased with the incubation time”. Further, the “CYP3A4 inactivated each minute at a saturating concentration of CEP” value in data set [2] (HLM, from Kinact) is “about 5.8%”. Besides, in data set [3], the “Time-dependent change of CYP2C9 activity” value is “not affected”. The “Effect on CYP1A2 activity” value in data set [4] is recorded as “not affected”. Also, the “Effect on CYP2A6 activity” value in [5] is on record as “not affected”. Besides, in data set [6], the “plasma Cmax” value is given as “approximately 0.05 μg/mL”. The “Effect on CYP2D6 activity” value in data set [7] is “not affected”. Further, the results for the Ki in [8] and in data set [12] were 11.8 µM and 13.1 µM, respectively. Also, the activity at 100 μM in [8] (human, pooled human liver microsomes, pH 7.4, probe chlorzoxazone (6-hydroxylation), read-out: CYP2E1 activity, % of control activity) was found to be 23.6%; in data set [11] (human, pooled human liver microsomes, pH 7.4, probe testosterone (6β-hydroxylation), read-out: CYP3A4 activity, % of control activity), 12.6%; in [12] (human, pooled human liver microsomes, pH 7.4, probe diclofenac (4′-hydroxylation), read-out: CYP2C9 activity, % of control activity), 18.1%. Also, the “Inhibition manner on CYP2E1 (Lineweaver–Burk plots)” value in [8] (pooled HLMs) was “competitive”. Besides, the IC50 was determined as 25.6 µM in data set [8] (pooled HLMs, chlorzoxazone 6-hydroxylation) and 24.6 µM in [12] (pooled HLMs, diclofenac 4′-hydroxylation). Moreover, the “Effect on CYP2C19 activity” value in data set [9] is reported as “not affected”. Besides, the “Time-dependent change of CYP2E1 activity” value in [10] is reported as “not affected”. The “Inhibition manner on CYP3A4 (Lineweaver–Burk plots)” value in [11] (pooled HLMs) is given as “non-competitive”. Also, the “Inhibition manner on CYP2C9 (Lineweaver–Burk plots)” value in data set [12] (pooled HLMs) is reported as “competitive”.
